From patent publication US3943154A, “Acylamides of beta-cyano-ethenesulfonyl substituted aminoarenes” (Sanitized Incorporated, priority 1973, dated 1976)
≈ marks a conversion by molar mass, not a printed value. Where two headings read alike, the source gives them in different places.

Tests used:
Type in all cases: cell-based
[1] = test system: Aspergillus niger ATCC 6257; experiment: agar incorporation test, antifungal activity; conditions: Aspergillus niger, ATCC6257, 96 h, lowest concentration showing no growth or sporulation, four days at 28° C, read-out: Antifungal Activity A. niger, minimum inhibitory concentration
Description: The anti-fungal activity of the test compounds was determined employing the "agar incorporation" technique, utilizing spores from Aspergillus niger ATCC 6257 as a representative organism. Test solutions were prepared as described above in acetone or dimethylsulfoxide. A source of carbon agar such as Mycophil Agar was used. The agar was melted and cooled and placed in a constant temperature water bath at 45° C + 3° C. About 13-14 ml of the agar was then poured into a sterile Petri dish, the required amount of test solution to give the desired concentration immediately added thereto, and the dish rotated and swirled by hand to obtain a uniform mixture before the agar hardened.
The hardened plates were inoculated with the test organism by fishing spores from a 7-14 day old slant with the inocculating needle and spotting the spores on the plates, usually in several places. The inoculated plates were incubated for four days in an incubator maintained at 28° C +2° C and with a relative humidity of 95%+.
The lowest concentration of each test compound showing no growth or sporulation of the test organism was taken as the minimum inhibitory concentration and is reported in the following tabulation.
(§1) The button assay and agar incorporation tests were also utilized to determine the corresponding inhibitory concentrations of various control materials, viz., the following well known commercial antimicrobials and fungicides: hexachlorophene, tribromosalicylanilide, trichlorocarbanilide,Captan (N-(trichloromethylthio)4cyclohexene-1,2-dicarboximide) and Zineb (zinc ethylenebis[dithiocarbamate]). The minimum inhibitory concentration of each of the various control materials against the respective organisms is indicated in Table IV below: […]

[2] = test system: Bacillus subtilis ATCC 9525; experiment: button assay, antibacterial activity; conditions: Bacillus subtilis, ATCC9525, lowest concentration showing a clear zone of inhibition, 24 hours at 37° C, read-out: Antibacterial Activity B.subtilis, minimum inhibitory concentration
Description: (§2) In the test program, the minimum inhibitory concentrations of the respective test compounds against various Gram positive and Gram negative bacteria were determined, employing the "button assay" method. The test organisms utilized were standard cultures of Staphylococcus aureus ATCC 6538 DR, a penicillin resistant Gram positive bacterium; Bacillus subtilis ATCC 9525, a spore-forming Gram positive bacillus; and Salmonella typhosa ATCC 6539, a Gram negative bacterium.
(§3) In the tests the respective compounds were dissolved in a suitable solvent, usually acetone or dimethylsulfoxide, to give solutions with known concentrations of active material. The highest concentration was ordinarily 1000 ppm (parts per million) [0.1%], and dilutions were made in suitable steps down to 1 ppm. Penicillin test buttons of filter paper having a diameter of 13 mm (socalled "Peniassay" buttons) were added to each solution within a test tube and left submerged for five minutes. They were then removed and left to dry on paper towels under sterile conditions. A laminar flow sterile cabinet equipped with ultraviolet lamps operating under positive air pressure was utilized for this purpose.
(§4) An 18-24 hour old nutrient broth culture (standard 1.5% nutrient agar) prepared in conventional manner from a slant and having passed through at least three consecutive daily transfers was used for inoculation. Melted and cooled sterile agar (45° C) was inoculated with the respective broth cultures by addition of 20 ml broth per liter of agar. The agar was then dispensed into Petri dishes (20 ml per plate) under sterile conditions and allowed to harden.
(§5) The test buttons were placed on the surface of the hardened agar and the plates incubated for 24 hours at 37° C. Where, on inspection, a clear zone of inhibition appeared around the button, inhibition of growth was presumed. Where growth touched the button there was no inhibition. For each of the test compounds, the lowest concentration showing a clear zone is reported as the inhibitory concentration in the following table.
as §1

[3] = test system: Staphylococcus aureus ATCC 6538 DR; experiment: button assay, antibacterial activity; conditions: Staphylococcus aureus, ATCC6538, 24 h, read-out: Antibacterial Activity S.aureus, minimum inhibitory concentration
Description: as §2, §3, §4
as §5, with “table. […]” for “table.”

[4] = test system: Salmonella typhosa ATCC 6539; experiment: button assay, antibacterial activity; conditions: Salmonella enterica, read-out: Antibacterial Activity S.typhosa, minimum inhibitory concentration
Description: as §2
as §3, with “The” for “In the tests the respective compounds were dissolved in a suitable solvent, usually acetone or dimethylsulfoxide, to give solutions with known concentrations of active material. The”
as §4
as §5, with “table. […]” for “table.”

Row | SMILES | MIC [1] [µg/mL] | MIC [2] [µg/mL] | MIC [3] [µg/mL] | MIC ([4]; 24 h) [µg/mL] | MIC ([4]; button assay, lowest concentration showing a clear zone of inhibition, 24 hours at 37° C) [µg/mL]
1 | CC(C)c1cc(C(C)C)c(S(=O)(=O)Nc2ccc(S(=O)(=O)C=CC#N)cc2)c(C(C)C)c1 [Example 19, 3-[4-(2,4,6-tri-isopropylbenzenesulfonamido)benzenesulfonyl]acrylonitrile] | > 1000 | 1000 (≈ 2110 µM) | 1000 (≈ 2110 µM) | 1000 (≈ 2110 µM) | 
2 | N#CC=CS(=O)(=O)c1ccc(NS(=O)(=O)c2ccc(Cl)cc2)cc1 [Example 20, 3-[4-(4-chlorobenzenesulfonamido)benzenesulfonyl]acrylonitrile] | > 1000 | 5 (≈ 13.1 µM) | 20 (≈ 52.2 µM) | 10 (≈ 26.1 µM) | 
3 | N#CC=CS(=O)(=O)c1ccc(NS(=O)(=O)c2ccc([N+](=O)[O-])cc2)cc1 [Example 22.1, 3-[4-(4-nitrobenzenesulfonamido)benzenesulfonyl]acrylonitrile] | > 1000 | 50 (≈ 127 µM) | 100 (≈ 254 µM) | 50 (≈ 127 µM) | 
4 | N#CC=CS(=O)(=O)c1ccc(NS(=O)(=O)c2ccccc2[N+](=O)[O-])cc1 [Example 22.3, 3-[4-(2-nitrobenzenesulfonamido)benzenesulfonyl]acrylonitrile] | > 1000 | ~50 (≈ 127 µM) | 10 (≈ 25.4 µM) | 100 (≈ 254 µM) | 
5 | N#CC=CS(=O)(=O)c1ccc(NS(=O)(=O)c2ccc([N+](=O)[O-])cc2[N+](=O)[O-])cc1 [Example 23.1, 3-[4-(2,4-dinitrobenzenesulfonamido)benzenesulfonyl]acrylonitrile] | 100 (≈ 228 µM) | 50 (≈ 114 µM) | 5 (≈ 11.4 µM) |  | 50 (≈ 114 µM)
6 | N#CC=CS(=O)(=O)c1ccc(NS(=O)(=O)c2ccc(Cl)c([N+](=O)[O-])c2)cc1 [Example 23.2, 3-[4-(4-chloro-3-nitrobenzenesulfonamido)benzenesulfonyl]acrylonitrile] | 1000 (≈ 2340 µM) | 300 (≈ 701 µM) | 100 (≈ 234 µM) | 100 (≈ 234 µM) | 
7 | N#CC=CS(=O)(=O)c1ccc(NS(=O)(=O)c2ccc(Cl)cc2[N+](=O)[O-])cc1 [Example 23.3, 3-[4-(4-chloro-2-nitrobenzenesulfonamido)benzenesulfonyl]acrylonitrile] | 100 (≈ 234 µM) | 10 (≈ 23.4 µM) | 10 (≈ 23.4 µM) | 20 (≈ 46.7 µM) | 
8 | N#CC=CS(=O)(=O)c1ccc(NS(=O)(=O)c2cc(Cl)cc(Cl)c2O)cc1 [Example 24, 3-[4-(3,5-dichloro-2-hydroxybenzenesulfonamido)-benzenesulfonyl]acrylonitrile] | 1000 (≈ 2310 µM) | 300 (≈ 692 µM) | 300 (≈ 692 µM) | 300 (≈ 692 µM) | 
9 | N#CC=CS(=O)(=O)c1ccc(NS(=O)(=O)c2ccc(O)c(C(=O)O)c2)cc1 [Example 25, 3-[4-(4-HYDROXY-3-[…])-BENZENESULFONYL]ACRYLONITRILE] | 500 (≈ 1220 µM) | 50 (≈ 122 µM) | 50 (≈ 122 µM) | 50 (≈ 122 µM) | 
10 | N#CC=CS(=O)(=O)c1ccc(NS(=O)(=O)c2cccc(C(=O)O)c2)cc1 [Example 26, 3-[4-(3-carboxybenzenesulfonamido)-benzenesulfonyl]acrylonitrile] | > 1000 | 10 (≈ 25.5 µM) | 10 (≈ 25.5 µM) | 10 (≈ 25.5 µM) | 
11 | CCOC(=O)c1ccc(S(=O)(=O)Nc2ccc(S(=O)(=O)C=CC#N)cc2)cc1 [Example 27, 3-[4-(4-[…])BENZENESULFONYL]ACRYLONITRILE] | 100 (≈ 238 µM) | 20 (≈ 47.6 µM) | 10 (≈ 23.8 µM) | 10 (≈ 23.8 µM) | 
12 | COc1ccc(S(=O)(=O)Nc2ccc(S(=O)(=O)C=CC#N)cc2)cc1 [Example 28, 3-[4-(4-methoxybenzenesulfonamido)benzenesulfonyl] acrylonitrile] | > 1000 | 10 (≈ 26.4 µM) | 1 (≈ 2.64 µM) | 5 (≈ 13.2 µM) | 
13 | COc1ccc(S(=O)(=O)Nc2ccc(S(=O)(=O)C=CC#N)cc2)cc1OC [Example 29.1, 3-[4-(3,4-dimethoxybenzenesulfonamido)benzenesulfonyl]acrylonitrile] | 300 (≈ 734 µM) | 10 (≈ 24.5 µM) | 20 (≈ 49 µM) | 10 (≈ 24.5 µM) | 
14 | COc1ccc(OC)c(S(=O)(=O)Nc2ccc(S(=O)(=O)C=CC#N)cc2)c1 [Example 29.2, 3-[4-(2,5-dimethoxybenzenesulfonamido)benzenesulfonyl]acrylonitrile] | 1000 (≈ 2450 µM) | 20 (≈ 49 µM) | 20 (≈ 49 µM) | 50 (≈ 122 µM) | 
15 | CC(=O)Nc1ccc(S(=O)(=O)Nc2ccc(S(=O)(=O)C=CC#N)cc2)cc1 [Example 30, 3-[4-(4-[…])BENZENESULFONYL]ACRYLONITRILE] | > 1000 | 50 (≈ 123 µM) | 50 (≈ 123 µM) | 50 (≈ 123 µM) | 
16 | N#CC=CS(=O)(=O)c1ccc(NC(=O)c2cccc(S(=O)(=O)Nc3ccc(S(=O)(=O)C=CC#N)cc3)c2)cc1 [Example 31, N'-4-(2-cyanoethenesulfonyl)phenylN"-3-(2-cyanoethenesulfonyl)phenylsulfamoylbenzamide] | 100 (≈ 172 µM) | 20 (≈ 34.3 µM) | 20 (≈ 34.3 µM) | 20 (≈ 34.3 µM) | 
17 | N#CC=CS(=O)(=O)c1ccc(NS(=O)(=O)c2ccc(C3=CC3(Cl)Cl)cc2)cc1 [Example 32, 3-[4-(4-dichlorocarbostyrenesulfonamido)benzenesulfonyl]acrylonitrile] | 1000 (≈ 2200 µM) | 5 (≈ 11 µM) | 5 (≈ 11 µM) | 5 (≈ 11 µM) | 
18 | N#CC=CS(=O)(=O)c1ccc(NS(=O)(=O)c2cccc(S(=O)(=O)Nc3ccc(S(=O)(=O)C=CC#N)cc3)c2)cc1 [Example 33, N.N'-bis-[4-(2-cyanoethenesulfonyl)phenyl]-1,3-phenylenesulfonamide] | > 1000 | 10000 (≈ 16200 µM) | 300 (≈ 485 µM) | 100 (≈ 162 µM) | 
19 | N#CC=CS(=O)(=O)c1ccc(NS(=O)(=O)c2ccc(Oc3ccc(S(=O)(=O)Nc4ccc(S(=O)(=O)C=CC#N)cc4)cc3)cc2)cc1 [Example 34, 4,4'-N,N'-bis[4-(2-cyanoethenesulfonyl)-phenylsulfamoyl]diphenyl ether] | > 1000 | 100 (≈ 141 µM) | 100 (≈ 141 µM) | 50 (≈ 70.3 µM) | 
20 | N#CC=CS(=O)(=O)c1ccc(NS(=O)(=O)c2ccc3ccccc3c2)cc1 [Example 35, 3-[4-(2-naphthalenesulfonamido)benzenesulfonyl]acrylonitrile] | > 1000 | 5 (≈ 12.5 µM) | 10 (≈ 25.1 µM) | 5 (≈ 12.5 µM) | 
21 | CC(=O)Nc1nnc(S(=O)(=O)Nc2ccc(S(=O)(=O)C=CC#N)cc2)s1 [Example 38, 3-[4-(2-acetamido-1,3,4-thiadiazole-5-sulfonamido)benzenesulfonyl]acrylonitrile] | 1000 (≈ 2420 µM) | 50 (≈ 121 µM) | 500 (≈ 1210 µM) | 100 (≈ 242 µM) | 
22 | N#CC=CS(=O)(=O)c1ccc(NSC(Cl)(Cl)Cl)cc1 [Example 42, 3-(4-trichlorosulfenamidobenzenesulfonyl)acrylonitrile] | 1000 (≈ 2800 µM) | 20 (≈ 55.9 µM) | 20 (≈ 55.9 µM) | 20 (≈ 55.9 µM) | 
23 | N#CC=CS(=O)(=O)c1ccc(NSc2ccc([N+](=O)[O-])cc2)cc1 [Example 43, 3-[4-(4-nitrobenzenesulfenamido)benzenesulfonyl]acrylonitrile] | 300 (≈ 830 µM) | 5 (≈ 13.8 µM) | 5 (≈ 13.8 µM) | 10 (≈ 27.7 µM) | 
